Reference: US8232269B2, “Amide compounds useful in therapy” (Pfizer Inc., priority 2008, dated 2012)
Counter-ions that a name gives are not always drawn.

Each compound was assayed against T1, Progesterone Receptor (PR) (Homo sapiens, UniProt P06401) (assay: In vitro functional assay for progesterone receptor (PR) antagonists: inhibition of progesterone-induced alkaline phosphatase expression in T47D cells). Conditions: antagonist format, 5 nM progesterone, Ki calculated from IC50 with the Cheng-Prusoff equation.
T1 construct: endogenous in cells; host or cells: T47D human breast mammary carcinoma cells
T1 sequence (P06401 1-933): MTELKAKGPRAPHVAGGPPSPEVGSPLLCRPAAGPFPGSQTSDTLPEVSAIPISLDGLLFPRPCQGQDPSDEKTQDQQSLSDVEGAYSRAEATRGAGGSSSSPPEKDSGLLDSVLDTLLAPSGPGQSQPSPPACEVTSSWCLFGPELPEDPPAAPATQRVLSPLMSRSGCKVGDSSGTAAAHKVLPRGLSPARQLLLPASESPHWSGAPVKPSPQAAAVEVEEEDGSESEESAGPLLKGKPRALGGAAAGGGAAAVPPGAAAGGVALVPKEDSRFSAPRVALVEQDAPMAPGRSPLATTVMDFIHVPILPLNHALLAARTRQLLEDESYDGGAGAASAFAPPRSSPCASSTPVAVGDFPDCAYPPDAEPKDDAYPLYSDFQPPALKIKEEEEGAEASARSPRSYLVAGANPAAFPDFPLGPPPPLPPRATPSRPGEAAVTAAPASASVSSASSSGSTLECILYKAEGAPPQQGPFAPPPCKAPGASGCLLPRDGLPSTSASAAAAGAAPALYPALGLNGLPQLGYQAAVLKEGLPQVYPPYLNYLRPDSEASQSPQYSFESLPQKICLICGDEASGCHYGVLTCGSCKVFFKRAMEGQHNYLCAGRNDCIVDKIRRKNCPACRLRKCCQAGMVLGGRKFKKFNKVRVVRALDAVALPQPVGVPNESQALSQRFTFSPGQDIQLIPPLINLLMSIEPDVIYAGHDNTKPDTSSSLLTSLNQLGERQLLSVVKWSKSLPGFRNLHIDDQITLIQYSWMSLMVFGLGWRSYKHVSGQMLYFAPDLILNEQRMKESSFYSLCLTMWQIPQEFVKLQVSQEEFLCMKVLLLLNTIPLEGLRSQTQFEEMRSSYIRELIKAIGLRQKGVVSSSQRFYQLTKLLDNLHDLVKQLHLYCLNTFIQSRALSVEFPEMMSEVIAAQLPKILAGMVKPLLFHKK
Format: cell-based
Excerpt: 1.0 In vitro Functional Assay for Progesterone Receptor (PR) Antagonists, Agonists and Modulators
The assay for PR antagonism takes advantage of the extensively reported modulation of alkaline phosphatase (AP) expression in human breast T47D mammary carcinoma cells {Beck et al., D. P. (1993). The progesterone antagonist RU486 acquires agonist activity upon stimulation of cAMP signalling pathways. Proc Natl Acad Sci USA 90, 4441-4445; Fensome et al. (2002). New progesterone receptor antagonists: 3,3-disubstituted-5-aryloxindoles. Bioorg Med Chem Lett 12, 3487-3490; Zhang et al., (2002a). 6-Aryl-1,4-dihydro-benzo d1,3oxazin-2-ones: a novel class of potent, selective, and orally active nonsteroidal progesterone receptor antagonists. Journal of Medicinal Chemistry 45, 4379-4382; Zhang et al., (2003). Novel 6-aryl-1,4-dihydrobenzo d oxazine-2-thiones as potent, selective, and orally active nonsteroidal progesterone receptor agonists. Bioorganic & Medicinal Chemistry Letters 13, 1313-1316; Zhang et al., (2002b). Potent nonsteroidal progesterone receptor agonists: synthesis and SAR study of 6-aryl benzoxazines. Bioorganic & Medicinal Chemistry Letters 12, 787-790; Zhang, Z. et al., (2000). In vitro characterization of trimegestone: a new potent and selective progestin. Steroids 65, 637-643}. […] In the absence of progesterone any agonist activity is also observed as an induction of AP activity. By running the assay in two formats (+/−progesterone (P4)), compounds behaving as PR antagonists, agonists, partial agonists or modulators with mixed agonist/antagonist activity can be identified.
Briefly, T47D cells are grown by propagating in DMEM with phenol red+10% FCS+2 mM Glutamine at 37° C./5% CO2. At 70-80% confluence, the media is exchanged for phenol red free DMEM+5% CS-FCS (Assay media). Cells are incubated overnight in assay media then harvested and frozen in assay media containing 10% DMSO at 1.5e7 cells/mL in 2 mL aliquots using a Planer and immediately stored in liquid nitrogen. Vials are removed from liquid nitrogen storage and immediately thawed in a water bath at 37° C. The cell suspension is added dropwise to 20 mL of assay media, then the tube centrifuged at 1000 rpm for 4 minutes, the supernatant is discarded and the pellet re-suspended in 20 mL assay media. T47D cells are then plated at 8750 cells/well in 35 μL assay media in sufficient white solid 384 well TC plates for the assay. For the agonist format assay a further 10 μL of assay media is added to each well. These plates are then cultured for 3-6 hours at 37° C./5% CO2 before compound addition.
Test substances are prepared by in 100% DMSO, half log concentrations from 4 mM in 384 well plates 5 μL/well (referred to here as ‘grandmother plates’). Progesterone is 100 μM made up in ethanol and PBS (i.e. add 1 mL ethanol to progesterone initially to help dissolving) and stored in 0.5-1 mL aliquots at −20° C.
Using a multidrop (Thermolabsystems), 60 μL/well of buffer is added to a 384 well plate—this will be the ‘mother plate’. _Add 45 μL well buffer to grandmother plate using the multidrop (=400 μM 10% DMSO dilution). Mixed and spun to remove air bubbles. • 20 μL is taken from the grandmother plate (400 μM 10% DMSO) and added to the mother plate (=100 μM 2.5% DMSO). Mixed and spun to remove air bubbles Preparation of Max/Min:
Antagonist Min: (Checker Pattern on Plate Map) 1 μM RU-486 (FAC 0.1 μM) • 50 μL of 0.2 mM RU-486 • 10 mL Diluent Addition of Test Substance to Cell Plates • The PlateMate Plus was used to add 5 μL MAX/MIN to cell plates • Then 5 μL test substances are added from the mother plate (after removing max/min PlateMate tips: columns 1 and 24)
Addition of Agonist (5 nM Progesterone FAC) for Antagonist Format Only
25 nM progesterone in assay media is prepared from 100 μM stock (12.5 μL progesterone/50 mL media), from which 10 μL per well is transferred to the assay plate using the PlateMate Plus (already containing cells & compound). […]

How did the Ki turn out when Cc1c(-c2ccc(C#N)cc2)nn(C2CCOC2)c1C(=O)NC(C)C (single isomer, unassigned) [Example 77 Ent 1, 3-(4-Cyanophenyl)-N-isopropyl-4-methyl-1-(tetrahydrofuran-3-yl)-1H-pyrazole-5-carboxamide] was run?
The Ki was 69.5 nM.

Cc1c(-c2ccc(C#N)cc2)nn(C2CCOC2)c1C(=O)NC(C)C (single isomer, unassigned) [Example 77 Ent 2, 3-(4-Cyanophenyl)-N-isopropyl-4-methyl-1-(tetrahydrofuran-3-yl)-1H-pyrazole-5-carboxamide] was tested. Which Ki did it give?
Its Ki is 102 nM.

Cc1c(-c2ccc(C#N)cc2)nn(C2CCOC2)c1C(=O)NC[C@H](C)O (single isomer, unassigned) [Example 78 Diast 1] was tested. Which Ki did it give?
The Ki was over 242 nM.

With Cc1c(-c2ccc(C#N)cc2)nn(C2CCOC2)c1C(=O)NC[C@H](C)O (single isomer, unassigned) [Example 78 Diast 2] as the compound, how does the Ki read?
Its Ki is 49.4 nM.

With Cc1c(-c2ccc(C#N)cc2)nn(C2CCOC2)c1C(=O)NC[C@@H](C)O (single isomer, unassigned) [Example 79 Diast 1] as the compound, how does the Ki read?
Its Ki is over 766 nM.

Cc1c(-c2ccc(C#N)cc2)nn(C2CCOC2)c1C(=O)NC[C@@H](C)O (single isomer, unassigned) [Example 79 Diast 2] was tested. Which Ki did it give?
Its Ki is 163 nM.

For Cc1c(-c2ccc(C#N)cc2)nn(C2CCOC2)c1C(=O)NCC(C)(C)O (single isomer, unassigned) [Example 80 Ent 1, 3-(4-Cyanophenyl)-N-(2-hydroxy-2-methylpropyl)-4-methyl-1-(tetrahydrofuran-3-yl)-1H-pyrazole-5-carboxamide], which Ki is on record?
The Ki was 57.1 nM.

How did the Ki turn out when Cc1c(-c2ccc(C#N)cc2)nn(C2CCOC2)c1C(=O)NCC(C)(C)O (single isomer, unassigned) [Example 80 Ent 2, 3-(4-Cyanophenyl)-N-(2-hydroxy-2-methylpropyl)-4-methyl-1-(tetrahydrofuran-3-yl)-1H-pyrazole-5-carboxamide] was run?
The Ki was over 733 nM.

With CCc1c(-c2ccc(C#N)cc2)nn(C(C)CC)c1C(=O)NCC(C)(C)O (single isomer, unassigned) [Example 106 Ent 1, 1-sec-Butyl-3-(4-cyanophenyl)-4-ethyl-N-(2-hydroxy-2-methylpropyl)-1H-pyrazole-5-carboxamide] as the compound, how does the Ki read?
Its Ki is 14.8 nM.

With CCc1c(-c2ccc(C#N)cc2)nn(C(C)CC)c1C(=O)NCC(C)(C)O (single isomer, unassigned) [Example 106 Ent 2, 1-sec-Butyl-3-(4-cyanophenyl)-4-ethyl-N-(2-hydroxy-2-methylpropyl)-1H-pyrazole-5-carboxamide] as the compound, how does the Ki read?
Its Ki is 38.2 nM.

With CCc1c(-c2ccc(C#N)cc2)nn(C(C)CC)c1C(=O)NCC(=O)NC (single isomer, unassigned) [Example 109 Ent 1, 1-sec-Butyl-3-(4-cyanophenyl)-4-ethyl-N-[2-(methylamino)-2-oxoethyl]-1H-pyrazole-5-carboxamide] as the compound, how does the Ki read?
The Ki was 99 nM.

Which Ki does the source give for CCc1c(-c2ccc(C#N)cc2)nn(C(C)CC)c1C(=O)NCC(=O)NC (single isomer, unassigned) [Example 109 Ent 2, 1-sec-Butyl-3-(4-cyanophenyl)-4-ethyl-N-[2-(methylamino)-2-oxoethyl]-1H-pyrazole-5-carboxamide] here?
Its Ki is 190 nM.

With CCC(=O)N1CCC(NC(=O)c2c(C3CC3)c(-c3ccc(C#N)cc3)nn2C(C)C)C1 (stereo in doubt) [Example 12, 3-(4-Cyanophenyl)-4-cyclopropyl-1-isopropyl-N-[(3S)-1-propionylpyrrolidin-3-yl]-1H-pyrazole-5-carboxamide] as the compound, how does the Ki read?
The Ki was 17.2 nM.

Which Ki does the source give for CC(C)n1nc(-c2ccc(C#N)cc2)c(C2CC2)c1C(=O)NCC(C)(C)O [Example 1, 3-(4-Cyano-phenyl)-4-cyclopropyl-N-(2-hydroxy-2-methylpropyl)-1-isopropyl-1H-pyrazole-5-carboxamide] here?
Its Ki is 19.8 nM.

For CC(C)n1nc(-c2ccc(C#N)cc2)c(C2CC2)c1C(=O)NC[C@H](C)O [Example 2, 3-(4-Cyano-phenyl)-4-cyclopropyl-N-[(2S)-2-hydroxypropyl]-1-isopropyl-1H-pyrazole-5-carboxamide], which Ki is on record?
Its Ki is 9.39 nM.

CC(C)n1nc(-c2ccc(C#N)cc2)c(C2CC2)c1C(=O)NC[C@@H](C)O [Example 3, 3-(4-Cyano-phenyl)-4-cyclopropyl-N-[(2R)-2-hydroxypropyl]-1-isopropyl-1H-pyrazole-5-carboxamide] was tested. Which Ki did it give?
Its Ki is 13.9 nM.

For CC(C)NC(=O)c1c(C2CC2)c(-c2ccc(C#N)cc2)nn1C(C)C [Example 4, 3-(4-Cyano-phenyl)-4-cyclopropyl-N,1-diisopropyl-1H-pyrazole-5-carboxamide], which Ki is on record?
Its Ki is 7.06 nM.

For CC(C)n1nc(-c2ccc(C#N)cc2)c(C2CC2)c1C(=O)N[C@@H]1CCN(C(=O)OC(C)(C)C)C1 [Example 5, tert-Butyl (3R)-3-({[3-(4-cyanophenyl)-4-cyclopropyl-1-isopropyl-1H-pyrazol-5-yl]carbonyl}amino)-pyrrolidine-1-carboxylate], which Ki is on record?
Its Ki is 7.92 nM.

For CC(C)n1nc(-c2ccc(C#N)cc2)c(C2CC2)c1C(=O)NC1CN(C(=O)OC(C)(C)C)C1 [Example 7, tert-Butyl 3-({[3-(4-cyanophenyl)-4-cyclopropyl-1-isopropyl-1H-pyrazol-5-yl]carbonyl}amino)azetidine-1-carboxylate], which Ki is on record?
Its Ki is 9.73 nM.

With CC(C)n1nc(-c2ccc(C#N)cc2)c(C2CC2)c1C(=O)N[C@@H]1CCNC1 [Example 8, 3-(4-Cyanophenyl)-4-cyclopropyl-1-isopropyl-N-[(3R)-pyrrolidin-3-yl]-1H-pyrazole-5-carboxamide hydrochloride] as the compound, how does the Ki read?
Its Ki is 162 nM.

For CC(C)n1nc(-c2ccc(C#N)cc2)c(C2CC2)c1C(=O)N[C@H]1CCNC1 [Example 9, 3-(4-Cyanophenyl)-4-cyclopropyl-1-isopropyl-N-[(3S)-pyrrolidin-3-yl]-1H-pyrazole-5-carboxamide hydrochloride], which Ki is on record?
The Ki was 836 nM.

CC(C)n1nc(-c2ccc(C#N)cc2)c(C2CC2)c1C(=O)NC1CNC1 [Example 10, N-Azetidin-3-yl-3-(4-cyanophenyl)-4-cyclopropyl-1-isopropyl-1H-pyrazole-5-carboxamide] was tested. Which Ki did it give?
Its Ki is 285 nM.
